Data from the NIST ThermoML archive (doi:10.1016/j.jct.2011.06.015).
Numbers after ± are expanded uncertainties.

Experiment: Boiling temperature at pressure P
Settings: 101.33 kPa; Liquid; Ebulliometric method (Recirculating still)

| Boiling temperature at pressure P | SMILES |
| --- | --- |
| 136.20 ± 0.05 °C | CCc1ccccc1 [ethylbenzene] |
| 152.40 ± 0.05 °C | CC(C)c1ccccc1 [isopropylbenzene] |
| 287.33 ± 0.05 °C | O=S1(=O)CCCC1 [sulfolane] |

| SMILES | Boiling temperature at pressure P |
| --- | --- |
| Cc1ccccc1 [toluene] | 110.80 ± 0.05 °C |
